Assay results taken from patent US20260144251A1, “ANTIMICROBIAL NANOCLAYS COMPRISING CATIONIC ANTIMICROBIALS, METHOD OF PREPARATION AND USES THEREOF” (Polyamyna Nanotech Inc., priority 2019, published 2026).
Converted amounts (≈) assume the structure as drawn. Like-named read-outs stand apart in the source and are kept apart here.

How the values were obtained:
Test in all cases: MIC, microbroth dilution method
[1] = tested on: A. baumannii (AB034); format: cell-based
Method: (§1) The antimicrobial activity (minimum inhibitory concentration, MIC) was evaluated by employing microbroth dilution method to determine the lowest concentration of the assayed antimicrobial additive material.

[2] = tested on: E. cloacae (EB5); format: cell-based
Method: as §1

[3] = tested on: E. coli (K12); format: cell-based
Method: as §1

[4] = tested on: K. pneumoniae (KP001); format: cell-based
Method: as §1

[5] = tested on: P. aeruginosa (PA07); format: cell-based
Method: as §1

[6] = tested on: MRSA (SA001); format: cell-based, Staphylococcus aureus
Method: as §1

[7] = tested on: A. baumannii (AB30); format: cell-based
Method: as §1

[8] = tested on: E. coli (E524); format: cell-based; conditions: Escherichia coli
Method: as §1

[9] = tested on: MRSA (SA004); format: cell-based, Staphylococcus aureus
Method: as §1

Row | Molecule | MIC [1] [µg/mL] | MIC [2] [µg/mL] | MIC [3] [µg/mL] | MIC [4] [µg/mL] | MIC [5] [µg/mL] | MIC [6] [µg/mL] | MIC ([7]; Acinetobacter baumannii, read-out: MIC) [µg/mL] | MIC ([2]; Enterobacter cloacae, read-out: MIC) [µg/mL] | MIC [8] [µg/mL] | MIC ([4]; Klebsiella pneumoniae, read-out: MIC) [µg/mL] | MIC ([5]; Pseudomonas aeruginosa, read-out: MIC) [µg/mL] | MIC ([9]; Staphylococcus aureus, read-out: MIC) [µg/mL] | MIC [7] [µg/mL] | MIC [9] [µg/mL]
1 | [Ag] [Ag, Silver] | 8 | 32 | 2 | 8 | 2 | 8 | – | – | – | – | – | – | – | –
2 | [H]/N=C(\N/C(=N/[H])NCCCCCCNC(=N)NC(=N)Nc1ccc(Cl)cc1)Nc1ccc(Cl)cc1 [Chlorhexidine] | – | – | – | – | – | – | 256 (≈ 506 µM) | 8 (≈ 15.8 µM) | 2 (≈ 3.96 µM) | < 0.5 | 16 (≈ 31.7 µM) | 8 (≈ 15.8 µM) | – | –
3 | Benzalkonium chloride [BAC] | 2 | 8 | 16 | 4 | 32 | 1 | – | – | – | – | – | – | – | –
4 | Neomycin | – | 4 | – | – | 128 | – | – | – | – | – | – | – | 8 | 4
